# In patent US6482411B1, “Methods of reducing bone loss with CD40 ligand” (Board of Regents, The University of Texas System, priority 1999, dated 2002):
# Marks after values point to notes of the source that are not given here.
# Key:
# [1] = system: MLO-Y4 osteocytic cell line; assay: Trypan blue exclusion (cell death) in MLO-Y4 cells; type: cell-based, murine; details: CD40L pretreatment 15 min where given, then dexamethasone 10^-6 M (10^-7 M earlier), TNFα or etoposide 50 μM for 6 h
# Experimental: The MLO-[…][…] (0.5-1.5 μg/ml) for 15 mins. followed by treatment with either dexamethasone at 10^-6 M (10^-7M in earlier studies), TNFα at 1 ng/ml or etoposide at 50 μM for 6 hrs. […] Trypan Blue Exclusion: Staining of cultured cells with vital dyes such as trypan blue is commonly used approach to quantify cell death. This is based on the premise that viable cells with intact membranes will exclude specific dyes such as trypan blue, which can easily be quantified under light microscopy ([…], 1998). The percentage of trypan blue positive cells in each culture condition was used to calculate cell survival. This method is […] for screening multiple samples or treatment conditions, but can underestimate cell death since membrane integrity can be intact until late in apoptosis. Trypan vital dye staining is not specific for apoptosis and will also stain necrotic cells. This was confirmed by additional analysis discussed below. Apoptosis of MLO-Y4 or calvaria cells was quantified by trypan blue staining (Jilka et al., 1998). Nonadherent cells were combined with adherent cells released from the culture dish using trypsin-EDTA, resuspended in medium containing serum, and collected by centrifugation. […] At least 100 cells per condition were counted. Trypan vital dye staining is not specific for apoptosis and will also stain necrotic cells. […]
# [2] = system: MLO-Y4 cells stably transduced with nuclear GFP; assay: GFP nuclear stain apoptosis assay in MLO-Y4 cells; type: cell-based, murine; details: CD40L pretreatment 15 min where given, then dexamethasone, TNFα or etoposide 50 μM for 6 h
# Experimental: (§1) The MLO-Y4 cells were pretreated with CD40L (0.5-1.5 μg/ml) for 15 mins. followed by treatment with either dexamethasone at 10^−6 M (10^−7M in earlier studies), TNFα at 1 ng/ml or etoposide at 50 μM for 6 hrs. The cells were cultured in 2.5% FBS/2.5% CS in α-MEM, 5% CO2, 37° C.
# GFP Nuclear Stain: Visualization of morphological features of apoptosis in the nucleus of the cells, such as chromatin condensation and nuclear fragmentation, was determined in this assay. During apoptosis the nucleus becomes shrunken and pyknotic as a result of DNA degradation. MLO-Y4 cells were stably transduced with a retroviral vector carrying the green fluorescent protein (GFP) CDNA with a nuclear localization sequence designed to target the GFP to the nucleus (Plotkin et al., 1998). […] At least 500 cells from fields selected by systematic random ampling were examined for each condition (Plotkinn et al., 1999; Jilka et al., 1999).
# MLO-Y4 cells = assay: FACS staining for Annexin V/propidium iodide in MLO-Y4 cells; type: cell-based, murine; details: CD40L pretreatment 15 min where given, then dexamethasone or TNFα for 6 h
# Experimental: as §1
# FACS Staining for Annexin V/Propidium Iodide: In early stages of apoptosis the cells lose membrane asymmetry and translocate the membrane phospholipid phosphatidylserine to the outer leaflet of the plasma membrane, where it can be detected by its high affinity binding to annexin V (Rillema, 1998). Annexin V is a calcium-dependent phospholipid-binding protein that has a high affinity for phosphatidylserine. Prolonged apoptosis can cause cell death and these non-viable cells stain positive for vital dye Propidium Iodide (PI) as well as Annexin V. Apoptotic cells stain Annexin V positive and Propidium iodide negative.
# The staining protocol includes washing single cell suspension twice with PBS and resuspending in 1×binding buffer (0.1 M HEPES/NaOH, pH 7.4; […]; 25 mM CaCl2) at a concentration of one million cells/ml. The cells are aliquoted (100 μl) in polypropylene tubes, incubated with annexin V FITC (5 μl) and propidium iodide (10 μl) for 15 minutes at 4° C. in the dark, and analyzed by flow cytometry within 1 hour. […]
# [3] = approximately 2,000 women randomized; cited from earlier work
# [4] = cited from earlier work
Compound,"Trypan Blue, percent positive cells (dead) [1]","GFP, percent positive cells (apoptotic) [2]",other results
"C[C@@H]1C[C@H]2[C@@H]3CCC4=CC(=O)C=C[C@]4(C)[C@@]3(F)[C@@H](O)C[C@]2(C)[C@@]1(O)C(=O)CO [Dex, dexamethasone]",13.7 ± 1.4%,24.0* percent,"Annexin V, percent positive cells (apoptotic) (MLO-Y4 cells): 23.7 ± 1.6%"
NCCCC(O)(P(=O)(O)O)P(=O)(O)O [alendronate],,,women with vertebra fractures versus placebo [3]: significantly fewer
O=C(c1ccc(OCCN2CCCCC2)cc1)c1c(-c2ccc(O)cc2)sc2cc(O)ccc12 [raloxifene],,,"proportion of women reporting hot flashes ([4]; 60 mg raloxifene daily, placebo 22.7%, no significant difference): 26.3%; endometrial proliferation ([4]; over 600 menopausal women): without inducing endometrial proliferation"
"COc1cc([C@@H]2c3cc4c(cc3[C@@H](O[C@@H]3O[C@@H]5CO[C@@H](C)O[C@H]5[C@H](O)[C@H]3O)[C@H]3COC(=O)[C@H]23)OCO4)cc(OC)c1O [Etoposide, etoposide]",15.8 ± 2.0%,15.9* percent,
